Columns and labels:
[1] = system: adjuvant-induced arthritis in the rat; experiment: adjuvant-induced arthritis in the rat (secondary lesion, uninjected paw volume by water plethysmometer); assay type: in vivo, consanguineous Lewis rats
plasma peptidase = conditions: compared with natural tuftsin (I); cited from earlier work

## gThr-mLys-Pro-Arg-OH [R-T]
[1]; administered orally
  effectiveness relative to natural tuftsin: at least 10 times
[1]; intraperitoneally (i.p.), 0.1 mg/kg, three times per week until the 38th day
  reduction in secondary lesion development: appreciable reduction in secondary lesion development, which is statistically significant only during the initial days of treatment
[1]; oral (intragastric intubation), 0.1 mg/kg, three times per week from day 0 until the 38th day, paw volume from the 14th day
  anti-inflammatory activity (reduction in the volume of the uninjected paw): considerable anti-inflammatory activity
[1]; subcutaneously (s.c.), 0.1 mg/kg, three times per week until the 38th day
  reduction in secondary lesion: no statistically significant reduction in secondary lesion
Plasma peptidase
  stability towards plasma peptidase: greater stability towards plasma peptidase

— EP0448811A1, “New pharmaceutical composition with anti-inflammatory activity” (SCLAVO S.p.A., priority 1989, dated 1991)
